# According to patent US12303474B2, “S-enantiomerically enriched compositions of beta blockers for treating amyotrophic lateral sclerosis” (priority 2013, dated 2025):
# “Also recorded” adds a separate entry of the source. Where two headings read alike, the source gives them in different places. Marks after values point to notes of the source that are not given here.
# What was measured:
# [1] = system: G93A SOD1 B6SJL hybrid (G93A) model; settings: for Heart / gastrocnemius: end of study;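 on HR (hazard ratio) survival vs placebo, FIG. 2: dosing began after ALS onset in G93A SOD1 mice, with survival as the endpoint, defined humanely as the animal failing to regain upright posture within 30 s when placed sideways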;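 on percent survival, comparison in words (FIGS. 2-4): dosing began after ALS onset in G93A SOD1 mice, with survival as the endpoint, defined humanely as the animal failing to regain upright posture within 30 s when placed sideways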
# Procedure: (§1) Transgenic mice over-expressing a high copy number (25 copies) of mutated human SOD1 gene with a G93A point mutation, i.e., B6SJL-TgN [SOD1-G93A]1 Gur (G1H-G93A transgenic mice, JR2726; Hemizygote) (Gurney M E, et al., Science, 264, 1772-1775, 1994) (“G93A SOD1 B6SJL hybrid (G93A) model”), were used.
# To study the effect of the test compounds on skeletal muscle atrophy, the skeletal muscle mass were determined at the end of the study.
# The number of all mice in the population is indicated as “n” in at the bottom of FIGS. 21A-21C.
# The number of all mice in the population is indicated as “n” in at the bottom of FIGS. 20D-20F.
# The number of all mice in the population is indicated as “n” in at the bottom of FIGS. 21G-21I.
# [2] = system: G93A SOD1 B6SJL hybrid (G93A) model;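 on HR (hazard ratio) survival vs placebo, FIG. 2: dosing began after ALS onset in G93A SOD1 mice, with survival as the endpoint, defined humanely as the animal failing to regain upright posture within 30 s when placed sideways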;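 on percent survival, comparison in words (FIGS. 2-4): dosing began after ALS onset in G93A SOD1 mice, with survival as the endpoint, defined humanely as the animal failing to regain upright posture within 30 s when placed sideways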
# [3] = system: G93A SOD1 B6SJL hybrid (G93A) model; test: Disease progression score (JAX SOP) in G93A SOD1 transgenic mice
# Text: The disease progression score is based on the JAX SOP (Ludolph A C, Bendotti C, Blaugrund E, Hengerer B, Loffler J P, Martin J, Meininger V, Meyer T, Moussaoui S, Robberecht W, Scott S, Silani V, Van Den Berg L H (ENMC Group For The Establishment Of Guidelines For The Conduct Of Preclinical And Proof Of Concept Studies In ALS/MND Models). 2007, which is incorporated by reference).
# [4] = system: G93A SOD1 B6SJL hybrid (G93A) model; test: Body weight and body composition (lean mass, fat mass; NMR scans) in G93A SOD1 transgenic mice; type: in vivo; settings: for Average Δ body weight / Average Δ fat mass / Average Δ lean mass: per day alive after disease onset
# Text: as §1
# […] […] There were 16 mice in the S-oxprenolol group.
# The primary endpoint was survival, humanely defined as the ability of the animal to right itself in 30 seconds after being laid on its side. Secondary endpoints were body weight, body composition, spontaneous activity and food intake. Body weight of the animals was assessed weekly until onset of disease. Additionally, body composition (fat mass and lean body mass) was assessed using NMR scans (EchoMRI-100, Echo Medical Systems, Houston, USA) every 4 days. After onset of disease, body weight and body composition were assessed every two days until the end of the study. All personal handling the animals was strictly blinded to the randomized treatment allocation.
# To study the effect of S-oxprenolol on body weight, body weight was monitored over time.
# To study the effect of the test compounds on lean body mass, lean mass was determined at the end of the study.
# To study the effect of the test compounds on fat mass, the fat mass were determined at the end of the study.
# To study the effect of S-oxprenolol on body weight, body weight was monitored over time. […] The number of all mice in the population is indicated as “n” in at the bottom of FIGS. 20A-20C.
# To study the effect of the test compounds on lean body mass, lean mass was determined at the end of the study. […] The number of all mice in the population is indicated as “n” in at the bottom of FIGS. 20D-20F.
# To study the effect of the test compounds on fat mass, the fat mass were determined at the end of the study. […] The number of all mice in the population is indicated as “n” in at the bottom of FIGS. 20G-20I.
# [5] = 20 mg/kg/day vs. S-Oxprenolol (20)
# [6] = 10 mg/kg/day, S-pindolol 3 mg/kg/day
structure (smiles),measurement,setting,value
"C=CCOc1ccccc1OC[C@@H](O)CNC(C)C [S-oxprenolol, (S)-1-(2-(allyloxy)phenoxy)-3-(isopropylamino)propan-2-ol]","gastrocnemius weight over days after onset, in words (FIG. 9)",[1]; 10 mg/kg/day,steady
same,"tibialis anterior muscle weight over days after onset, in words (FIG. 11)",[1]; 10 mg/kg/day,steady
same,"correlation R of tibialis anterior muscle weight with days after onset (=survival), FIG. 11","[1]; 10 mg/kg/day, p=0.72, placebo R: −0.67",0.15
same,"correlation R of gastrocnemius weight with days after onset (=survival), FIG. 9","[1]; 10 mg/kg/day, p=0.94, placebo R: −0.56",−0.03
same,BAT (brown adipose tissue),"[1]; all mice, 10 mg/kg/d",46.8 ± 3.5 mg
same,EDL (extensor digitorum longus),"[1]; all mice, 10 mg/kg/d",7.18 ± 0.34 mg
same,soleus,"[1]; all mice, 10 mg/kg/d",5.89 ± 0.35 mg
same,Heart,"[1]; all mice, 10 mg/kg/d",108.6 ± 5.8 mg
same,gastrocnemius,"[1]; all mice, 10 mg/kg/d",55.1 ± 4.0 mg
same,BAT (brown adipose tissue),"[1]; all mice, 20 mg/kg/d",43.7 ± 2.3 mg
same,EDL (extensor digitorum longus),"[1]; all mice, 20 mg/kg/d",7.791 ± 0.29*^+++ mg
same,soleus,"[1]; all mice, 20 mg/kg/d",6.42 ± 0.39 mg
same,Heart,"[1]; all mice, 20 mg/kg/d",104.1 ± 3.5 mg
same,gastrocnemius,"[1]; all mice, 20 mg/kg/d",50.1 ± 2.9 mg
same,BAT (brown adipose tissue),"[1]; female mice, 10 mg/kg/d",39.4 ± 4.2 mg
same,EDL (extensor digitorum longus),"[1]; female mice, 10 mg/kg/d",7.03 ± 0.51 mg
same,soleus,"[1]; female mice, 10 mg/kg/d",5.71 ± 0.48 mg
same,Heart,"[1]; female mice, 10 mg/kg/d",92.3 ± 3.2^p=0.064 mg
same,gastrocnemius,"[1]; female mice, 10 mg/kg/d",50.5 ± 4.0*^p=0.060 ^vs propanolol mg
same,BAT (brown adipose tissue),"[1]; female mice, 20 mg/kg/d",37.1 ± 2.9 mg
same,EDL (extensor digitorum longus),"[1]; female mice, 20 mg/kg/d",7.29 ± 0.42*^$ mg
same,soleus,"[1]; female mice, 20 mg/kg/d",6.15 ± 0.30 mg
same,Heart,"[1]; female mice, 20 mg/kg/d",92.8 ± 3.0 mg
same,gastrocnemius,"[1]; female mice, 20 mg/kg/d",46.2 ± 3.9 mg
same,BAT (brown adipose tissue),"[1]; male mice, 10 mg/kg/d",53.2 ± 5.0 mg
same,EDL (extensor digitorum longus),"[1]; male mice, 10 mg/kg/d",7.28 ± 0.47 mg
same,soleus,"[1]; male mice, 10 mg/kg/d",6.04 ± 0.53 mg
same,Heart,"[1]; male mice, 10 mg/kg/d",122.6 ± 8.8 mg
same,gastrocnemius,"[1]; male mice, 10 mg/kg/d",59.1 ± 6.6 mg
same,BAT (brown adipose tissue),"[1]; male mice, 20 mg/kg/d",46.5 ± 3.0 mg
same,EDL (extensor digitorum longus),"[1]; male mice, 20 mg/kg/d",8.15 ± 0.39^$$$ mg
same,soleus,"[1]; male mice, 20 mg/kg/d",6.58 ± 0.61 mg
same,Heart,"[1]; male mice, 20 mg/kg/d",112.4 ± 4.5 mg
same,gastrocnemius,"[1]; male mice, 20 mg/kg/d",53.1 ± 4.3 mg
same,"percent survival, comparison in words (FIGS. 2-4)",[2]; 10 mg/kg/day,longer survival than those in the placebo group; also recorded: significantly superior to either placebo or S-pindolol at its preferred dose; also recorded: significantly superior to either placebo or the other compounds
same,"HR (hazard ratio) survival vs placebo, FIG. 2","[2]; 10 mg/kg/day, 95% CI: 0.171-0.88, p=0.0241",0.39
same,Median survival ratio vs placebo,"[2]; 10 mg/kg/day, 95% CI: 0.83-1.81",1.32
same,Median survival after onset of ALS symptoms,"[2]; 10 mg/kg/day, placebo 28 days",37 days
same,"survival, days after onset","[2]; 10 mg/kg/day, placebo 42 days",56 days
same,survival improved compared to placebo treated mice,"[2]; G93A mice, 10 mg/kg/day after onset of ALS",about 33%
same,"percent survival, comparison in words (FIG. 14)","[2]; all mice, 20 mg/kg/day",longer survival than other groups
same,HR survival (FIG. 14),"[2]; all mice, 10 mg/kg/day vs. placebo",0.71
same,HR survival (FIG. 14),"[2]; all mice, 20 mg/kg/day vs. placebo",0.45
same,"percent survival, comparison in words (FIG. 16)","[2]; female mice, 20 mg/kg/day",longer survival than other groups
same,HR survival (FIG. 16),"[2]; female mice, 10 mg/kg/day vs. placebo",0.96
same,HR survival (FIG. 16),"[2]; female mice, 20 mg/kg/day vs. placebo",0.53
same,"percent survival, comparison in words (FIG. 15)","[2]; male mice, 20 mg/kg/day",longer survival than other groups
same,HR survival (FIG. 15),"[2]; male mice, 10 mg/kg/day vs. placebo",0.46
same,HR survival (FIG. 15),"[2]; male mice, 20 mg/kg/day vs. placebo",0.39
same,HR Progression from score 1 to score 2 (FIG. 17),[3]; 10 mg/kg/day vs. placebo,0.56
same,HR Progression from score 1 to score 3 (FIG. 19),[3]; 10 mg/kg/day vs. placebo,0.73
same,HR Progression from score 2 to score 3 (FIG. 18),[3]; 10 mg/kg/day vs. placebo,1.07
same,HR Progression from score 1 to score 2 (FIG. 17),[3]; [5],1.17
same,HR Progression from score 1 to score 3 (FIG. 19),[3]; [5],1.48
same,HR Progression from score 2 to score 3 (FIG. 18),[3]; [5],1.20
same,HR Progression from score 1 to score 2 (FIG. 17),[3]; 20 mg/kg/day vs. placebo,0.51
same,HR Progression from score 1 to score 3 (FIG. 19),[3]; 20 mg/kg/day vs. placebo,0.47
same,HR Progression from score 2 to score 3 (FIG. 18),[3]; 20 mg/kg/day vs. placebo,0.64
same,"change in lean body mass, in words (FIG. 6)","[4]; 10 mg/kg/day, end of study",less change in lean body mass than those receiving a placebo
same,"change in fat mass per survival day after ALS onset, in words (FIG. 13)",[4]; [6],less change in fat mass than those receiving S-pindolol
same,"change in lean body mass per survival day after ALS onset, in words (FIG. 7)",[4]; [6],less change in lean body mass than those receiving S-pindolol
same,"change of body weight per survival day after ALS onset, in words (FIG. 5)",[4]; [6],body weight loss that was close to those administered S-pindolol; also recorded: less body weight loss than those in the placebo group
same,Wasting of lean mass reduced compared to placebo (FIG. 6),"[4]; 10 mg/kg/day, p=0.18",about 40%
same,Δ body weight,"[4]; all mice, 10 mg/kg/d",-5.4 ± 0.43 g
same,Δ fat mass,"[4]; all mice, 10 mg/kg/d",-1.26 ± 0.14 g
same,Δ lean mass,"[4]; all mice, 10 mg/kg/d",-3.31 ± 0.33 g
same,Average Δ body weight,"[4]; all mice, 10 mg/kg/d",-123 ± 11.6 mg/day
same,Average Δ fat mass,"[4]; all mice, 10 mg/kg/d",-29.4 ± 3.7 mg/day
same,Average Δ lean mass,"[4]; all mice, 10 mg/kg/d",-89.6 ± 9.1 mg/day
same,Δ body weight,"[4]; all mice, 20 mg/kg/d",-5.56 ± 0.47 g
same,Δ fat mass,"[4]; all mice, 20 mg/kg/d",-1.56 ± 0.18 g
same,Δ lean mass,"[4]; all mice, 20 mg/kg/d",-4.78 ± 0.41 g
same,Average Δ body weight,"[4]; all mice, 20 mg/kg/d",−99.4 ± 9.7^p=0.064 mg/day
same,Average Δ fat mass,"[4]; all mice, 20 mg/kg/d",-29.8 ± 3.6 mg/day
same,Average Δ lean mass,"[4]; all mice, 20 mg/kg/d",-93.3 ± 7.5 mg/day
same,"change in fat mass, in words (FIG. 12)","[4]; end of study, p>0.5",no effect on the loss of fat mass
same,Δ body weight,"[4]; female mice, 10 mg/kg/d",-4.51 ± 0.55 g
same,Δ fat mass,"[4]; female mice, 10 mg/kg/d",−1.17 ± 0.21^p=0.059 g
same,Δ lean mass,"[4]; female mice, 10 mg/kg/d",-3.99 ± 0.37 g
same,Average Δ body weight,"[4]; female mice, 10 mg/kg/d",-103.3 ± 16.1 mg/day
same,Average Δ fat mass,"[4]; female mice, 10 mg/kg/d",-25.9 ± 4.8 mg/day
same,Average Δ lean mass,"[4]; female mice, 10 mg/kg/d",-69.2 ± 10.8 mg/day
same,Δ body weight,"[4]; female mice, 20 mg/kg/d",-4.57 ± 0.55 g
same,Δ fat mass,"[4]; female mice, 20 mg/kg/d",-1.29 ± 0.17 g
same,Δ lean mass,"[4]; female mice, 20 mg/kg/d",-3.97 ± 0.49 g
same,Average Δ body weight,"[4]; female mice, 20 mg/kg/d",-82.0 ± 13.6 mg/day
same,Average Δ fat mass,"[4]; female mice, 20 mg/kg/d",−26.8 ± 4.4^+ mg/day
same,Average Δ lean mass,"[4]; female mice, 20 mg/kg/d",90.7 ± 10.9 mg/day
same,Δ body weight,"[4]; male mice, 10 mg/kg/d",-6.57 ± 0.57 g
same,Δ fat mass,"[4]; male mice, 10 mg/kg/d",-1.44 ± 0.19 g
same,Δ lean mass,"[4]; male mice, 10 mg/kg/d",-3.67 ± 0.49 g
same,Average Δ body weight,"[4]; male mice, 10 mg/kg/d",-150.3 ± 14.5 mg/day
same,Average Δ fat mass,"[4]; male mice, 10 mg/kg/d",-33.6 ± 5.7 mg/day
same,Average Δ lean mass,"[4]; male mice, 10 mg/kg/d",-115.1 ± 13.9 mg/day
same,Δ body weight,"[4]; male mice, 20 mg/kg/d",-6.36 ± 0.67 g
same,Δ fat mass,"[4]; male mice, 20 mg/kg/d",-1.78 ± 0.28 g
same,Δ lean mass,"[4]; male mice, 20 mg/kg/d",-5.34 ± 0.56 g
same,Average Δ body weight,"[4]; male mice, 20 mg/kg/d",-115.7 ± 12.6 mg/day
same,Average Δ fat mass,"[4]; male mice, 20 mg/kg/d",-32.1 ± 5.4 mg/day
same,Average Δ lean mass,"[4]; male mice, 20 mg/kg/d",-95.8 ± 10.6 mg/day
